Calls of active or inactive are those of the source.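 Rule for the calls: active = fitted half-maximal concentration for changing reporter fluorescence at or below a set limit; inactive = the rest.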
Target: Citrate synthase, peroxisomal (Saccharomyces cerevisiae (strain ATCC 204508 / S288c)) (UniProt P08679)
Test: CIT2-GFP expression modulators in yeast, dose response, flow cytometry, MLPCN hits (AID 2744)
Conditions: S. cerevisiae CIT2-GFP strain, 3 h; for GFP fluorescence, higher = induction: at 33 µM (top of the series)

Chain of Citrate synthase, peroxisomal (Saccharomyces cerevisiae (strain ATCC 204508 / S288c)) (P08679 whole entry, looked up): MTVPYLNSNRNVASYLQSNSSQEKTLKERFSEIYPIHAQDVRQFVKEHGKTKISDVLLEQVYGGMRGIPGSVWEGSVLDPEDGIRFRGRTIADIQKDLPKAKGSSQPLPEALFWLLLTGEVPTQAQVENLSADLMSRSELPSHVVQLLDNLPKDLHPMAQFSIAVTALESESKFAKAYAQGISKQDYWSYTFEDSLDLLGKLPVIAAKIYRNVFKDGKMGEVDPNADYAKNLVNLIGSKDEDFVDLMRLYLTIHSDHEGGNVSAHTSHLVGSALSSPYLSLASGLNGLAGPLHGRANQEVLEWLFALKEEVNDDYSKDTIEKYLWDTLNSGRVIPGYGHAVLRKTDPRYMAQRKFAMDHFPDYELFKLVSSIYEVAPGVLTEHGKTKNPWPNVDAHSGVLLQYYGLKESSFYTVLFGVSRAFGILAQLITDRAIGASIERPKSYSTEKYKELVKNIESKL

Cc1cc(C)c2c(c1)/C(=C/C(=O)c1ccc(Br)s1)C(=O)N2
GFP fluorescence, higher = induction: inactive

COc1ccc(N=Nc2ccc(O)c3ncccc23)cc1
GFP fluorescence, higher = induction: inactive

CN(C)c1ccc(N=Cc2nc(-c3ccccc3)oc2OC(=O)c2ccccc2)cc1
GFP fluorescence, higher = induction: inactive

COCCN1C(=O)/C(=C/c2ccc(N3CCCC3)cc2C)SC1=S
GFP fluorescence, higher = induction: inactive

Cc1c(C)c2ccc(Oc3ccc([N+](=O)[O-])cc3C(F)(F)F)c(C)c2oc1=O
GFP fluorescence, higher = induction: inactive

COc1cc(/C=C2/C(=O)ON=C2c2ccccc2)ccc1O
GFP fluorescence, higher = induction: inactive

N#Cc1cc([N+](=O)[O-])c(-n2nnc3ccccc32)c([N+](=O)[O-])c1
GFP fluorescence, higher = induction: inactive

CCOc1cc(C=C2C(=O)c3ccccc3C2=O)ccc1OCC(=O)Nc1ccc(C)cc1
GFP fluorescence, higher = induction: inactive

COc1cccc(/C=N/Nc2ccc([N+](=O)[O-])cn2)c1O
GFP fluorescence, higher = induction: inactive

N=C1/C(=C\c2coc3ccccc3c2=O)C(=O)N=C2SC(c3ccncc3)=NN12
EC50 (flow cytometry fluorescence): 13 µM

CCOc1ccc(NC2=C(Cl)C(=O)N(Cc3ccccc3)C2=O)cc1
GFP fluorescence, higher = induction: inactive

CCCCc1ccc(NC(=O)CC(C)=O)cc1
GFP fluorescence, higher = induction: inactive

Cc1ccc(-c2nn(C(C)(C)C)c3ncnc(N)c23)cc1
GFP fluorescence, higher = induction: inactive

O=C(c1ccccc1)c1ccccc1N1C(=O)C=CC1=O
GFP fluorescence, higher = induction: inactive

O=C(Nc1cccc(C(F)(F)F)c1)Oc1ccc(Cl)c2cccnc12
GFP fluorescence, higher = induction: inactive

Cn1ncc(S(=O)(=O)Cc2ccccc2)c(Cl)c1=O
GFP fluorescence, higher = induction: inactive

Cc1ccc2nc(/C(C#N)=C/c3ccc(O)c(O)c3)[nH]c2c1
GFP fluorescence, higher = induction: inactive

Cc1cccc(Nc2nc(-c3ccccn3)cs2)n1
GFP fluorescence, higher = induction: inactive

CCCOc1ccc(C(=O)NNC(=S)NC(=O)c2ccccc2)cc1
GFP fluorescence, higher = induction: inactive

C=CCOc1ccc(C(=O)/C=C2/C(=O)Nc3ccccc32)cc1
GFP fluorescence, higher = induction: inactive

CC(=O)n1cc(C(C[N+](=O)[O-])SCCN)c2ccccc21 (centres undefined)
GFP fluorescence, higher = induction: inactive

O=[N+]([O-])c1ccc(S(=O)(=O)c2cccc(C(F)(F)F)c2)nc1
GFP fluorescence, higher = induction: inactive

O=C(O)c1cc[c]([Hg][Cl])cc1
GFP fluorescence, higher = induction: inactive

O=C(/C=C/c1cccc(Cl)c1)c1nc2ccccc2[nH]1
GFP fluorescence, higher = induction: inactive

CCCCCCCCCCCCCCCC[n+]1cccc2ccccc21
GFP fluorescence, higher = induction: inactive

c1ccc(-c2csc(Nc3cccnc3)n2)nc1
GFP fluorescence, higher = induction: inactive

CCOC(=O)COc1ccc2ccccc2c1/C=C/[N+](=O)[O-]
GFP fluorescence, higher = induction: inactive

Cc1ccc(/C=C2/SC(=S)N(C3CCCCC3)C2=O)o1
GFP fluorescence, higher = induction: inactive

CC(=O)Oc1cccc(N2C(=O)c3cccc4c([N+](=O)[O-])ccc(c34)C2=O)c1
GFP fluorescence, higher = induction: inactive

CCc1nc2ccccc2c(=O)n1NC(=O)c1c(O)c2cccc3c2n(c1=O)CCC3
GFP fluorescence, higher = induction: inactive

O=C1C(=O)c2ccccc2-c2ccccc21
GFP fluorescence, higher = induction: inactive

CC(=O)[C@]1(O)Cc2c(O)c3c(c(O)c2[C@@H](O[C@H]2C[C@H](N)[C@H](O)[C@H](C)O2)C1)C(=O)c1ccccc1C3=O
GFP fluorescence, higher = induction: inactive

O=C(Nc1nnc(-c2ccc(F)cc2)o1)c1cccc([N+](=O)[O-])c1
GFP fluorescence, higher = induction: inactive

O=C(OCC(=O)N1CCN(C(=O)c2ccco2)CC1)c1cc(-c2ccc(Cl)c(Cl)c2Cl)nc2ccccc12
GFP fluorescence, higher = induction: inactive

O=C1NC(=O)N(CCc2ccc(F)cc2)C(=O)/C1=C/c1cccs1
GFP fluorescence, higher = induction: inactive

Clc1ccc(N=c2ssnc2Cl)cc1
GFP fluorescence, higher = induction: inactive

COc1ccc([N+](=O)[O-])c(S(=O)(=O)c2ccccc2)n1
GFP fluorescence, higher = induction: inactive

CC(OC(=O)c1ccco1)C(=O)Nc1nc(-c2ccccc2)cs1 (centres undefined)
GFP fluorescence, higher = induction: inactive

Cc1[nH]n(-c2ncc(-c3ccccc3)s2)c(=O)c1C(c1ccc(Cl)cc1)C(C#N)C#N (centres undefined)
GFP fluorescence, higher = induction: inactive

Oc1c(C(Nc2cccc(C(F)(F)F)c2)c2ccncc2)ccc2cccnc12 (centres undefined)
GFP fluorescence, higher = induction: inactive

O=C(Sc1cccc2cccnc12)c1ccccc1Br
GFP fluorescence, higher = induction: inactive

CCOc1ccc(N/N=C(/C#N)C(N)=O)cc1
GFP fluorescence, higher = induction: inactive

Cc1cc(=O)oc2cc(Oc3ccc([N+](=O)[O-])cc3C(F)(F)F)ccc12
GFP fluorescence, higher = induction: inactive

CCN(CC)c1ccc(/C=C2/C(=O)c3ccc(C(=O)O)cc3C2=O)cc1
GFP fluorescence, higher = induction: inactive

CCCCS(=O)(=O)/C=C\C=C/S(=O)(=O)CCCC
GFP fluorescence, higher = induction: inactive

CCOC(=O)CSC1=NC(=O)/C(=C\c2ccc(Cl)cc2)S1
GFP fluorescence, higher = induction: inactive

Cc1cc(C)c(C)c(S(=O)(=O)ON2C(=O)c3ccccc3C2=O)c1C
GFP fluorescence, higher = induction: inactive

Nc1c(C(=O)c2cccs2)sc2nsc(SCCN3CCCCC3)c12
GFP fluorescence, higher = induction: inactive

C/C(=N\NC(=O)c1cccc(Br)c1)c1ccccn1
GFP fluorescence, higher = induction: inactive

CC(C)(C)c1cc(C(c2cccnc2)N2CCN(CCO)CC2)cc(C(C)(C)C)c1O (centres undefined)
GFP fluorescence, higher = induction: inactive

COc1ccc(N2C(=O)/C(=C/c3cccs3)C(=O)NC2=S)cc1
GFP fluorescence, higher = induction: inactive

COc1ccccc1NC1=C(Cl)C(=O)N(c2ccccc2)C1=O
GFP fluorescence, higher = induction: inactive

C[n+]1ccc(/C=C/c2c[nH]c3ccccc23)cc1
GFP fluorescence, higher = induction: inactive

O=C1/C(=C\c2ccc(O)c(O)c2)SC(=S)N1Cc1ccccc1
GFP fluorescence, higher = induction: inactive

O=C1C=CC(=O)N1c1cccc(-c2ccccc2)c1
GFP fluorescence, higher = induction: inactive

CC(C)[C@]1(c2ccc(Cl)cc2)ON(c2ccccc2C(F)(F)F)C1=O
GFP fluorescence, higher = induction: inactive

CCn1c(=O)c(C(C)=O)c(O)c2ccccc21
GFP fluorescence, higher = induction: inactive

Cc1cccc(N=C2NC(=O)/C(=C/C=C/c3ccco3)S2)c1C
GFP fluorescence, higher = induction: inactive

O=C(NC(=S)NNC(=O)c1cnccn1)c1ccc(Cl)cc1
GFP fluorescence, higher = induction: inactive

CCOC(=O)/C(=C\c1cn(C)c2ccccc12)[N+](=O)[O-]
GFP fluorescence, higher = induction: inactive

COc1cc(/C=C2/C(=O)c3cccc([N+](=O)[O-])c3C2=O)c(Br)cc1O
GFP fluorescence, higher = induction: inactive

CCOc1ccc(C(Nc2cccnc2)c2cc(Cl)c3cccnc3c2O)cc1 (centres undefined)
GFP fluorescence, higher = induction: inactive

CN(O)/C=c1/ccc2c(n1)C(=O)C=CC=2
GFP fluorescence, higher = induction: inactive

Cc1cc(C)nc(S/C=C/C(=O)c2ccccc2)n1
GFP fluorescence, higher = induction: inactive

O/C=c1\ccc2cccc3nc(C(F)(F)F)nc1c23
GFP fluorescence, higher = induction: inactive

O=C(/C=C/c1ccccn1)c1ccc(Br)cc1O
GFP fluorescence, higher = induction: inactive

CCCc1cc(=O)oc2cc(C)cc(OCC(=O)NC3CC3)c12
GFP fluorescence, higher = induction: inactive

O=S(=O)(/N=C(/Sc1ccccc1)c1ccccc1)c1ccccc1
GFP fluorescence, higher = induction: inactive

On1ccccc1=S
GFP fluorescence, higher = induction: inactive

CCC(=O)Nc1ccc(NC(=O)c2cc3ccccc3o2)cc1
GFP fluorescence, higher = induction: inactive

CCOc1ccccc1/C=c1\sc2ncnn2c1=O
GFP fluorescence, higher = induction: inactive

Cc1ccc2c(c1)c(/C=C/c1cc[n+](C)cc1)c(C)n2C
GFP fluorescence, higher = induction: inactive

N#C/C(=C\c1ccccn1)c1nc2ccccc2s1
GFP fluorescence, higher = induction: inactive

COc1ccc(C(=O)NC(=S)NNC(=O)CCc2ccccc2)cc1
GFP fluorescence, higher = induction: inactive

O=S1(=O)C=C(Sc2nc3ccccc3s2)c2ccccc21
GFP fluorescence, higher = induction: inactive

O=C(COc1ccc(F)cc1Cl)Nc1nc(-c2ccccn2)cs1
GFP fluorescence, higher = induction: inactive

O=C(Nc1nc2ccc(F)cc2s1)c1ccccn1
GFP fluorescence, higher = induction: inactive

C#CCOCCOCCOCCNc1nc(N2CCN(C(=O)CCCCCCCCCCNC(=O)[C@H](CCCCN)n3cc(CCO)nn3)CC2)nc(N2CCN(C(=O)CCCCCCCCCCNC(=O)[C@H](CCCN=C(N)N)n3cc(C[C@@H](C)CC)nn3)CC2)n1
GFP fluorescence, higher = induction: inactive

Cc1ccc(-c2nc(C)sc2CC(=O)Nc2nnc(C)s2)cc1
GFP fluorescence, higher = induction: inactive

Cc1[nH][nH]c(=O)c1C(c1ccc(-c2ccc(Cl)cc2)o1)c1c(C)[nH][nH]c1=O
GFP fluorescence, higher = induction: inactive

CC1=C/C(=N\OS(=O)(=O)c2ccccc2)C(C)=CC1=O
GFP fluorescence, higher = induction: inactive

Cc1c(C(=O)Nc2nc(-c3ccccn3)cs2)oc2ccccc12
GFP fluorescence, higher = induction: inactive

Cc1nn(C)c(C)c1N1C(=O)c2cccc3c(Br)ccc(c23)C1=O
GFP fluorescence, higher = induction: inactive

COc1cc(/C=C2\C(=O)N(CCC#N)N=C2C)c(Br)cc1OC(C)C
GFP fluorescence, higher = induction: inactive
